Source: PubChem BioAssay AID234 (DTP/NCI, 2004)
“And” between values parts separate entries of the source, which are not always exact repeats. Identical values can stand only once. Results filed as inconclusive are left out.

Tested on: C3AKF1 mice, hamster liver cystadenocarcinoma s.c., tumor weight T/C
Test: NCI In Vivo Anticancer Drug Screen. Data for tumor model Cystadenocarcinoma, Liver (No. 1) (Hamster) (subcutaneous) in C3AKF1 (CHKRF1) mice
Conditions: endpoint: mean tumor weight, higher = larger tumour
Protocol: The antitumor activity of compounds was measured in mice bearing transplantable tumors. Survival or tumor size were measured and the results are expressed as the measurement made in the treated group (T) divided by the measurement made in the vehicle treated control group (C). The tumor model used in this assay is Cystadenocarcinoma, Liver (No. 1) (Hamster) (subcutaneous) in C3AKF1 (CHKRF1) mice

[1] = dose: 37.5 mg/kg/injection, schedule: Q01DX010 (ip), vehicle: carboxymethylcellulose (CMC)
[2] = dose: 10.0 mg/kg/injection, schedule: Q01DX010 (ip), vehicle: carboxymethylcellulose (CMC)
[3] = dose: 31.0 mg/kg/injection, schedule: Q01DX010 (ip), vehicle: carboxymethylcellulose (CMC)
[4] = dose: 12.0 mg/kg/injection, schedule: Q01DX010 (ip), vehicle: carboxymethylcellulose (CMC)
[5] = dose: 1.0 mg/kg/injection, schedule: Q01DX010 (ip), vehicle: carboxymethylcellulose (CMC)
[6] = dose: 2.0 mg/kg/injection, schedule: Q01DX010 (ip), vehicle: carboxymethylcellulose (CMC)
[7] = dose: 4.0 mg/kg/injection, schedule: Q01DX010 (ip), vehicle: carboxymethylcellulose (CMC)
[8] = dose: 50.0 mg/kg/injection, schedule: Q01DX010 (ip), vehicle: carboxymethylcellulose (CMC)
[9] = dose: 100.0 mg/kg/injection, schedule: Q01DX010 (ip), vehicle: carboxymethylcellulose (CMC)
[10] = dose: 0.25 mg/kg/injection, schedule: Q01DX010 (ip), vehicle: saline
[11] = dose: 62.0 mg/kg/injection, schedule: Q01DX010 (ip), vehicle: carboxymethylcellulose (CMC)
[12] = dose: 125.0 mg/kg/injection, schedule: Q01DX010 (ip), vehicle: carboxymethylcellulose (CMC)
[13] = dose: 50.0 mg/kg/injection, schedule: Q01DX010 (ip), vehicle: saline
[14] = dose: 100.0 mg/kg/injection, schedule: Q01DX010 (ip), vehicle: saline
[15] = dose: 200.0 mg/kg/injection, schedule: Q01DX010 (ip), vehicle: saline
[16] = dose: 2.5 mg/kg/injection, schedule: Q01DX010 (ip), vehicle: carboxymethylcellulose (CMC)
[17] = dose: 5.0 mg/kg/injection, schedule: Q01DX010 (ip), vehicle: carboxymethylcellulose (CMC)
[18] = dose: 25.0 mg/kg/injection, schedule: Q01DX010 (ip), vehicle: carboxymethylcellulose (CMC)
[19] = dose: 30.0 mg/kg/injection, schedule: Q01DX010 (ip), vehicle: carboxymethylcellulose (CMC)
[20] = dose: 60.0 mg/kg/injection, schedule: Q01DX010 (ip), vehicle: carboxymethylcellulose (CMC)

CCC[CH2][Sn]1([CH2]CCC)[O]C(=O)C[S]1
T/C (dose: 0.39 mg/kg/injection, schedule: Q01DX010 (ip), vehicle: saline): 113 % of control | T/C (dose: 0.78 mg/kg/injection, schedule: Q01DX010 (ip), vehicle: saline): 110 % of control | T/C (dose: 1.56 mg/kg/injection, schedule: Q01DX010 (ip), vehicle: saline): 66 % of control

Clc1ccc2c(Cl)ncnc2c1
T/C (dose: 4.8 mg/kg/injection, schedule: Q01DX010 (ip), vehicle: carboxymethylcellulose (CMC)): 116 % of control | T/C (dose: 9.5 mg/kg/injection, schedule: Q01DX010 (ip), vehicle: carboxymethylcellulose (CMC)): 110 % of control | T/C (dose: 19.0 mg/kg/injection, schedule: Q01DX010 (ip), vehicle: carboxymethylcellulose (CMC)): 96 % of control | T/C [1]: 104 % of control

CCOC(=O)C(Cc1ccc(N(CCCl)CCCl)cc1)NC=O (stereo unspecified)
T/C [2]: 93 % of control | T/C (dose: 20.0 mg/kg/injection, schedule: Q01DX010 (ip), vehicle: carboxymethylcellulose (CMC)): 93 % of control | T/C (dose: 40.0 mg/kg/injection, schedule: Q01DX010 (ip), vehicle: carboxymethylcellulose (CMC)): 55 % of control

O=[N+]([O-])c1ccccc1CSc1ncnc2nc[nH]c12
T/C (dose: 15.0 mg/kg/injection, schedule: Q01DX010 (ip), vehicle: carboxymethylcellulose (CMC)): 101 % of control | T/C [3]: 99 % of control | T/C (dose: 250.0 mg/kg/injection, schedule: Q01DX010 (ip), vehicle: carboxymethylcellulose (CMC)): 61 % of control

O=C(c1ccc(C(=O)N2CC2)cc1)N1CC1
T/C (dose: 3.0 mg/kg/injection, schedule: Q01DX010 (ip), vehicle: carboxymethylcellulose (CMC)): 69 % of control | T/C (dose: 6.0 mg/kg/injection, schedule: Q01DX010 (ip), vehicle: carboxymethylcellulose (CMC)): 85 % of control | T/C [4]: 166 % of control | T/C (dose: 24.0 mg/kg/injection, schedule: Q01DX010 (ip), vehicle: carboxymethylcellulose (CMC)): 98 % of control

N[C@@H](Cc1ccc(N(CCCl)CCCl)cc1)C(=O)O
T/C (dose: 0.5 mg/kg/injection, schedule: Q01DX010 (ip), vehicle: carboxymethylcellulose (CMC)): 57 % of control | T/C [5]: 63 % of control | T/C [6]: 92 % of control | T/C [7]: 75 % of control

ClCCn1cnc2c(SCc3ccccc3Cl)ncnc21
T/C [8]: 96 % of control | T/C [9]: 64 % of control | T/C (dose: 400.0 mg/kg/injection, schedule: Q01DX010 (ip), vehicle: carboxymethylcellulose (CMC)): 49 % of control

CC1(C)N=C(N)N=C(N)N1c1cccc(Br)c1
T/C (dose: 4.4 mg/kg/injection, schedule: Q01DX010 (ip), vehicle: carboxymethylcellulose (CMC)): 82 % of control | T/C (dose: 6.6 mg/kg/injection, schedule: Q01DX010 (ip), vehicle: carboxymethylcellulose (CMC)): 84 % of control

S=C(N=Nc1ccccc1)NNc1ccccc1
T/C [1]: 98 % of control

CC1CC(C)OS(=O)O1 (stereo unspecified)
T/C (dose: 44.0 mg/kg/injection, schedule: Q01DX010 (ip), vehicle: saline): 65 % of control | T/C (dose: 66.0 mg/kg/injection, schedule: Q01DX010 (ip), vehicle: saline): 81 % of control

COC(=O)[C@@H]1c2cc3c(c(O)c2[C@@H](OC2OC(C)C(OC)C(C)(OC)C2OC)C[C@]1(C)O)C(=O)c1c(O)cc2c(c1C3=O)O[C@H]1O[C@]2(C)[C@H](O)[C@@H](N(C)C)[C@@H]1O (stereo partly specified)
T/C [10]: 103 % of control

CCOC1=CCCCC1
T/C [11]: 94 % of control | T/C [12]: 106 % of control | T/C (dose: 125.0 mg/kg/injection, schedule: Q01DX010 (ip), vehicle: saline): 48 % of control | T/C (dose: 250.0 mg/kg/injection, schedule: Q01DX010 (ip), vehicle: saline): 95 % of control | T/C (dose: 500.0 mg/kg/injection, schedule: Q01DX010 (ip), vehicle: saline): 99 % of control

CNC=O
T/C [13]: 39 % of control | T/C [14]: 34 % of control | T/C [15]: 20 % of control

CCCCCCCCCCCC[n+]1ccc(C)cc1C
T/C (dose: 0.06 mg/kg/injection, schedule: Q01DX010 (ip), vehicle: saline): 71 % of control | T/C (dose: 0.12 mg/kg/injection, schedule: Q01DX010 (ip), vehicle: saline): 75 % of control | T/C [10]: 85 % of control

CCN(CC)CCNc1ccc([N+](=O)[O-])c2sc3ccccc3c(=O)c12
T/C (dose: 20.0 mg/kg/injection, schedule: Q01DX010 (ip), vehicle: saline): 98 % of control | T/C (dose: 40.0 mg/kg/injection, schedule: Q01DX010 (ip), vehicle: saline): 70 % of control

Cc1cc(N)c2cc(NC(=O)CCCCCCCCC(=O)Nc3ccc4nc(C)cc(N)c4c3)ccc2n1
T/C [3]: 68 % of control | T/C [11]: 50 % of control | T/C [12]: 38 % of control

NC(=O)/C=C/C(=O)O (tested in a mixture with another compound)
T/C (dose: 31.0 mg/kg/injection, schedule: Q#A X010 (ip), vehicle: saline): 68 % of control

O=c1c[n+](-c2ccccc2)[nH]o1
T/C (dose: 22.5 mg/kg/injection, schedule: Q01DX010 (ip), vehicle: carboxymethylcellulose (CMC)): 66 % of control | T/C (dose: 45.0 mg/kg/injection, schedule: Q01DX010 (ip), vehicle: carboxymethylcellulose (CMC)): 41 % of control

NC(Cc1ccc(N(CCCl)CCCl)cc1)C(=O)O (stereo unspecified)
T/C [5]: 67 % of control | T/C (dose: 1.25 mg/kg/injection, schedule: Q01DX010 (ip), vehicle: carboxymethylcellulose (CMC)): 70 % of control | T/C [6]: 86 % of control | T/C [16]: 65 % of control | T/C [7]: 52 % of control | T/C [17]: 82 % of control

O=C(O)CCc1c[nH]c2ccc(N(CCCl)CCCl)cc12
T/C (dose: 1.2 mg/kg/injection, schedule: Q01DX010 (ip), vehicle: carboxymethylcellulose (CMC)): 109 % of control | T/C [16]: 97 % of control | T/C [17]: 77 % of control | T/C [2]: 69 % of control

CC(=O)NCCSC(=O)C(=O)SCCNC(C)=O
T/C [18]: 72 % of control | T/C [8]: 111 % of control | T/C [9]: 65 % of control

CCC1=C(c2cc(Cl)c3ccccc3c2OCC(=O)O)OC(CC)(C(=O)c2cc(Cl)c3ccccc3c2OCC(=O)O)CC1 (stereo unspecified)
T/C [19]: 90 % of control | T/C [20]: 87 % of control | T/C (dose: 120.0 mg/kg/injection, schedule: Q01DX010 (ip), vehicle: carboxymethylcellulose (CMC)): 64 % of control

CCCNC(=NC)c1ccc(NC(=O)c2ccc(C(=O)Nc3ccc(C(=NC)NCCC)cc3)cc2)cc1
T/C [4]: 99 % of control

CCCC(=O)NC1=C(N2CC2)C(=O)C(NC(=O)CCC)=C(N2CC2)C1=O
T/C (dose: 0.5 mg/kg/injection, schedule: Q01DX010 (ip), vehicle: saline): 69 % of control and 86 % of control | T/C (dose: 0.75 mg/kg/injection, schedule: Q01DX010 (ip), vehicle: saline): 47 % of control and 49 % of control | T/C (dose: 1.7 mg/kg/injection, schedule: Q01DX010 (ip), vehicle: saline): 32 % of control and 48 % of control | T/C (dose: 2.6 mg/kg/injection, schedule: Q01DX010 (ip), vehicle: saline): 14 % of control

Nc1nc(SCc2ccccc2Cl)c2[nH]cnc2n1
T/C [4]: 55 % of control | T/C [18]: 104 % of control | T/C [8]: 60 % of control and 84 % of control | T/C [9]: 100 % of control and 109 % of control

CCN(CC)Cc1cc(Nc2c3ccccc3nc3cc(Cl)ccc23)ccc1O
T/C (dose: 6.25 mg/kg/injection, schedule: Q01DX010 (ip), vehicle: carboxymethylcellulose (CMC)): 84 % of control | T/C (dose: 12.5 mg/kg/injection, schedule: Q01DX010 (ip), vehicle: carboxymethylcellulose (CMC)): 106 % of control | T/C [18]: 87 % of control | T/C [8]: 88 % of control

CCCCn1cnc2c(SC)nc(N)nc21
T/C [19]: 88 % of control | T/C [20]: 74 % of control | T/C (dose: 115.0 mg/kg/injection, schedule: Q01DX010 (ip), vehicle: carboxymethylcellulose (CMC)): 75 % of control

CC(C)NCC(=O)c1ccc(O)c(O)c1
T/C [13]: 75 % of control | T/C [14]: 59 % of control | T/C [15]: 90 % of control

NNc1nncc2ccccc12
T/C [1]: 111 % of control | T/C (dose: 75.0 mg/kg/injection, schedule: Q01DX010 (ip), vehicle: carboxymethylcellulose (CMC)): 94 % of control
